Assay results from US10889546B2, “Alkynyl pyridine prolyl hydroxylase inhibitor, and preparation method and medical use thereof” (Jiangsu Hengrui Medicine Co., Ltd., priority 2015, dated 2021).
Like-named read-outs stand apart in the source and are kept apart here.

Key:
Prolyl hydroxylase 2 = Prolyl hydroxylase 2 (Homo sapiens (Human), UniProt Q9GZT9); test: Prolyl hydroxylase 2 inhibition, fluorescence polarization method; type: biochemical
VEGF [1] = test: VEGF expression at the cellular level (VEGF kit); type: cell-based; conditions: Hep3B human hepatoma cell, 24 h after administration
Method: (§1) The test of the activity of some compounds of the present invention on VEGF at the cellular level and EPO at the cellular level is shown as follows. The method is in accordance with Bioorganic & Medicinal Chemistry Letters 23 (2013) 5953-5957, and the test was carried out by using VEGF and EPO kit respectively 24 h after administration.
(§2) Hep3B Cell: Human Hepatoma Cell

EPO [2] = test: EPO expression at the cellular level (EPO kit); type: cell-based; conditions: Hep3B human hepatoma cell, 24 h after administration
Method: as §1, §2

EPO [3] = test: EPO level at the animal level (EPO kit); type: in vivo; conditions: C57Bl/6 mice, male, 8-9 weeks old; 50 μM; 24 h / 4 h after administration
Method: (§3) The test of the activity of some compounds of the present invention on VEGF at the animal level and EPO at the cellular level is shown as follows. The method is in accordance with Journal of Medicinal Chemistry 55 (2012) 2945-2959, and the test was carried out by using VEGF and EPO kit respectively 4 h after administration.

VEGF [4] = test: VEGF level at the animal level (VEGF kit); type: in vivo; conditions: C57Bl/6 mice, male, 8-9 weeks old; 50 μM; 24 h / 4 h after administration
Method: as §3

HIF-α = test: Western-blot test of HIF-α level in cells; type: cell-based, human; conditions: Hep3B cell, 50 μM, 250 μM, 24 hours after administration
Method: At the same time, Western-blot test at the cellular level was also carried out for some of the compounds of the present invention.
FIG. 1 is the results of Western-blot test of some compounds at the cellular level (Hep3B cell: human hepatoma cell; the compound concentration: 50 μM, 250 μM, 24 hours after administration)

[5] = fluorescence polarization, read 1 h after adding the drugs, read-out: Prolyl hydroxylase 2 (IC50 nM)
[6] = Table 2 comparison, same test method, same batch, read-out: Prolyl hydroxylase 2 (IC50 nM), example compounds of the present invention

Sequence of Prolyl hydroxylase 2 (Q9GZT9 whole entry): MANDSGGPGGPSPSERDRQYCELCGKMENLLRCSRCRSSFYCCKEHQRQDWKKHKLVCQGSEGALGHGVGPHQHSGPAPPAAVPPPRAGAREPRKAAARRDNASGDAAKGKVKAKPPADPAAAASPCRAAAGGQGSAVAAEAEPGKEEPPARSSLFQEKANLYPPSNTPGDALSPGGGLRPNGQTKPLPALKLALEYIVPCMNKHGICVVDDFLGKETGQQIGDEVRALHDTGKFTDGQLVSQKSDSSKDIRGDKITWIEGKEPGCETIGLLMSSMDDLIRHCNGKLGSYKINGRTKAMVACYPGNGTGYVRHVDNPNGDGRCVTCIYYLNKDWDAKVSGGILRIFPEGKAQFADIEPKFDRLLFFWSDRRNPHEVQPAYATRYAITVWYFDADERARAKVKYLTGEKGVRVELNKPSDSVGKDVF

Row | IC50 (Prolyl hydroxylase 2; [5]) [nM] | IC50 (Prolyl hydroxylase 2; [6]) [nM] | Structure (SMILES) | Whether it can increase the expression of VEGF in cells (VEGF [1]) | Whether it can increase the expression of EPO in cells (EPO [2]) | increased level of EPO at the animal level (FIG. 2) (EPO [3]) | increased level of VEGF at the animal level (FIG. 2) (VEGF [4]) | Whether it can increase the level of HIF-α in cells (HIF-α)
1 | 1220 ± 56 | – | CC(C)(C)C#Cc1cnc(C(=O)NCC(=O)O)c(O)c1 [Example 3, 2-(3-Hydroxy-5-tert-butylethynyl)picolinamido acetic acid] | Yes | Yes | – | – | –
2 | 834.9 ± 3.2 | – | O=C(O)CNC(=O)c1ncc(C#CC2CC2)cc1O [Example 4, 2-(3-Hydroxy-5-cyclopropylethynyl)picolinamido acetic acid] | Yes | Yes | – | – | –
3 | 820 ± 10.9 | – | O=C(O)CNC(=O)c1ncc(C#Cc2ccccc2)cc1O [Example 5, 2-(3-Hydroxy-5-phenylethynyl)picolinamido acetic acid] | Yes | Yes | – | – | –
4 | – | – | Cc1cccc(C#Cc2cnc(C(=O)NCC(=O)O)c(O)c2)c1 [Example 14, 2-(3-Hydroxy-5-m-methylphenylethynyl)picolinamido acetic acid] | Yes | Yes | increased level | increased level | Yes
5 | – | – | O=C(O)CNC(=O)c1ncc(C#Cc2ccc(F)cc2)cc1O [Example 15, 2-(3-Hydroxy-5-p-fluorophenylethynyl)picolinamido acetic acid] | Yes | Yes | increased level | increased level | Yes
6 | 8130 ± 40.5 | – | O=C(O)CNC(=O)c1ncc(C#Cc2ccc(-c3ccccc3)cc2)cc1O [Example 18, 2-(3-Hydroxy-5-(biphenyl-4-ylethynyl))picolinamido acetic acid] | – | – | – | – | –
7 | 169.5 ± 0.5 | 169.5 ± 0.5 | O=C(O)CNC(=O)c1ncc(C#CCOc2ccccc2)cc1O [Example 33, 2-(3-Hydroxy-5-(3-phenoxypropyn-1-yl))picolinamido acetic acid] | Yes | Yes | – | – | –
8 | 110 ± 22 | – | Cc1ccc(OCC#Cc2cnc(C(=O)NCC(=O)O)c(O)c2)cc1 [Example 34, 2-(3-Hydroxy-5-(3-p-tolyloxypropyn-1-yl))picolinamido acetic acid] | Yes | Yes | – | – | Yes
9 | 70.4 ± 0.6 | – | Cc1ccccc1OCC#Cc1cnc(C(=O)NCC(=O)O)c(O)c1 [Example 35] | Yes | Yes | – | – | –
10 | 378 ± 33.3 | – | CCc1ccc(OCC#Cc2cnc(C(=O)NCC(=O)O)c(O)c2)cc1 [Example 36] | Yes | Yes | – | – | –
11 | – | – | Cc1cccc(OCC#Cc2cnc(C(=O)NCC(=O)O)c(O)c2)c1C [Example 38, 2-(3-Hydroxy-5-(3-(2,3-dimethylphenyl)oxypropyn-1-yl))picolinamido acetic acid] | Yes | Yes | – | – | Yes
12 | 515 ± 6.1 | – | O=C(O)CNC(=O)c1ncc(C#CCOc2ccc(C(F)(F)F)cc2)cc1O [Example 42, 2-(3-Hydroxy-5-(3-p-trifluoromethylphenoxypropyn-1-yl))picolinamido acetic acid] | – | – | – | – | –
13 | 13.7 ± 1.1 | 13.7 ± 1.1 | O=C(O)CNC(=O)c1ncc(C#CCOc2ccc(Cl)cc2)cc1O [Example 44, 2-(3-Hydroxy-5-(3-p-chlorophenoxypropyn-1-yl))picolinamido acetic acid] | Yes | Yes | – | – | Yes
14 | 175 ± 2.3 | – | O=C(O)CNC(=O)c1ncc(C#CCOc2ccccc2Cl)cc1O [Example 45, 2-(3-Hydroxy-5-(3-o-chlorophenoxypropyn-1-yl))picolinamido acetic acid] | Yes | Yes | – | – | –
15 | 102 ± 5 | – | O=C(O)CNC(=O)c1ncc(C#CCOc2cccc(Cl)c2)cc1O [Example 46, 2-(3-Hydroxy-5-(3-m-chlorophenoxypropyn-1-yl))picolinamido acetic acid] | Yes | Yes | – | – | –
16 | 187 ± 8.3 | – | O=C(O)CNC(=O)c1ncc(C#CCOc2ccc(F)cc2)cc1O [Example 47, 2-(3-Hydroxy-5-(3-p-fluorophenoxypropyn-1-yl))picolinamido acetic acid] | Yes | Yes | increased level | increased level | –
17 | 540 ± 3.6 | – | O=C(O)CNC(=O)c1ncc(C#CCOc2ccc(-c3ccccc3)cc2)cc1O [Example 57, 2-(3-Hydroxy-5-(3-p-phenylphenoxypropyn-1-yl))picolinamido acetic acid] | Yes | Yes | – | – | –
18 | 326.5 ± 0.8 | – | O=C(O)CNC(=O)c1ncc(C#CCNc2ccccc2)cc1O [Example 64, 2-(3-Hydroxy-5-(3-anilinopropyn-1-yl))picolinamido acetic acid] | Yes | Yes | – | – | –
19 | – | – | O=C(O)CNC(=O)c1ncc(C#CCNc2ccc(Cl)cc2)cc1O [Example 65] | Yes | Yes | – | – | Yes
20 | – | – | CCc1ccc(NCC#Cc2cnc(C(=O)NCC(=O)O)c(O)c2)cc1 [Example 66, 2-(3-Hydroxy-5-(3-p-ethylanilinopropyn-1-yl))picolinamido acetic acid] | Yes | Yes | – | – | –
21 | – | – | Cc1nc(C(=O)NCC(=O)O)c(O)c2ccc(Oc3ccccc3)cc12 [FG-4592, reference compound] | Yes | Yes | increased level | increased level | –
